Patent US4206215A, “Antimicrobial bis-[4-(substituted-amino)-1-pyridinium]alkanes” (Sterling Drug Inc., priority 1977, dated 1980)
Read-outs that look alike come from different tables or passages of the source.

Legend:
S. Aureus Smith = test: In vitro antibacterial activity, MIC (modified Autotiter method); format: cell-based, Staphylococcus aureus; details: 18-20 hours at 37° C.
In short: (§1)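 MIC by modified Autotiter twofold broth dilution from a 1,000 mcg./ml. compound solution in inoculated semisynthetic glucose medium. Final drug concentrations ranged from 500 to 0.06 mcg./ml.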

E. coli 100/B22 = test: as above; format: cell-based, Escherichia coli; details: for MIC E. coli 100/B22: 18-20 hours at 37° C.
In short: as §1

E. coli AB1932-1 = test: as above; format: cell-based, Escherichia coli; details: 18-20 hours at 37° C.
In short: as §1

E. coli Vogel = test: as above; format: cell-based, Escherichia coli; details: 18-20 hours at 37° C.
In short: as §1

K. pneum. 39645 = test: as above; format: cell-based, Klebsiella pneumoniae; details: 18-20 hours at 37° C.
In short: as §1

P. mirab. MGH-1 = test: as above; format: cell-based, Proteus mirabilis; details: 18-20 hours at 37° C.
In short: as §1

Ps. aerug. MGH-2 = test: as above; format: cell-based, Pseudomonas aeruginosa; details: 18-20 hours at 37° C.
In short: as §1

S. pyogen. C203 = test: as above; format: cell-based, Streptococcus pyogenes; details: 18-20 hours at 37° C.
In short: as §1

A. niger 16404 = test: In vitro antifungal activity, MIC (modified Autotiter method); format: cell-based, Aspergillus niger; details: 18-20 hours at 37° C.
In short: as §1

C. albicans 10231 = test: as above; format: cell-based, Candida albicans; details: 18-20 hours at 37° C.
In short: as §1

C. albicans Wisc. = test: as above; format: cell-based, Candida albicans; details: 18-20 hours at 37° C.
In short: as §1

T. menta. 9129 = test: as above; format: cell-based, Trichophyton mentagrophytes; details: 18-20 hours at 37° C.
In short: as §1

[1] = Acute oral toxicity (ALD50); format: in vivo; details: mouse, in vivo, po, mice, read-out: 7-Day ALD50
Method: (§2) The acute oral toxicity (ALD50) of several representative examples was determined as follows: Groups of 3 young adult male Swiss-Webster strain albino mice were fasted approximately 4 hours before medication and then medicated once orally by stomach tube.

[2] = tested on: young adult male Swiss-Webster strain albino mice; test: Acute oral toxicity (ALD50); format: in vivo
Method: as §2

S. Aureus ATCC 6538 = test: Effect of serum on bacteriostatic activity (serial tube dilution test); format: cell-based, Staphyloccocus aureus; details: for MIC: Staphylococcus aureus, ATCC6538
Method: (§3) Antibacterial effectiveness in the presence of serum was determined for representative examples by the standard serial tube dilution test wherein paired comparisons of minimum inhibitory concentrations (MIC) were determined in the absence and in the presence of heat inactivated (30 min. at 56° C.) horse serum (40%) in the test medium. The results are expressed as the fold increase in MIC (mcg./ml.) versus Staphyloccocus aureus and Escherichia coli caused by the presence of serum and are presented in Table B hereinbelow.

E. Coli ATCC 8739 = test: as above; format: cell-based, Escherichia coli; details: for MIC: Escherichia coli, ATCC8739
Method: as §3

[3] = tested on: Herpes simplex type 2 virus; test: Virucidal activity in vitro (plaque inhibition test); format: cell-based; details: 2 mg. of test compound on growth medium
Method: Virucidal activity of representative examples against Herpes simplex type 2 virus was determined in vitro employing a procedure similar to the plaque inhibition test for detection of specific inhibitors of DNA-containing viruses published by E. C. Herrmann, Jr., Proc. Soc. Exp. Biol. Med. 107, 142 (1961) wherein 2 mg. of the test compound was placed on the surface of the growth medium.

[4] = 125 mg/kg oral, aqueous solution
[5] = 250 mg/kg oral, aqueous solution
[6] = 500 mg/kg oral, aqueous solution
[7] = 1000 mg/kg oral, aqueous solution
[8] = 125 mg/kg oral, suspension in 1% G.T.
[9] = 250 mg/kg oral, suspension in 1% G.T.
[10] = 500 mg/kg oral, suspension in 1% G.T.
[11] = 1000 mg/kg oral, suspension in 1% G.T.

SMILES	MIC S. Aureus Smith (S. Aureus Smith) [µg/mL]	MIC E. coli 100/B22 (E. coli 100/B22) [µg/mL]	MIC E. coli AB1932-1 (E. coli AB1932-1) [µg/mL]	MIC E. coli Vogel (E. coli Vogel) [µg/mL]	MIC K. pneum. 39645 (K. pneum. 39645) [µg/mL]	MIC P. mirab. MGH-1 (P. mirab. MGH-1) [µg/mL]	MIC Ps. aerug. MGH-2 (Ps. aerug. MGH-2) [µg/mL]	MIC S. pyogen. C203 (S. pyogen. C203) [µg/mL]	MIC A. niger 16404 (A. niger 16404) [µg/mL]	MIC C. albicans 10231 (C. albicans 10231) [µg/mL]	MIC C. albicans Wisc. (C. albicans Wisc.) [µg/mL]	MIC T. menta. 9129 (T. menta. 9129) [µg/mL]	LD50 at 168 h ([1]; aqueous solution) [mg/kg]	Mortality 7 Days [2, 4]	Mortality 7 Days [2, 5]	Mortality 24 Hrs [2, 5]	Mortality 7 Days [2, 6]	Mortality 24 Hrs [2, 6]	Mortality 7 Days [2, 7]	Mortality 24 Hrs [2, 7]	other results
CCCCCCCCNc1cc[n+](CCCCCCCC[n+]2ccc(NCCCCCCCC)cc2)cc1 [Example 12, 1,8-Bis-[4-(octylamino)-1-pyridinium]octane dichloride]	0.25	0.5	1.0	1.0	1.0	3.9	7.8	0.5	7.8	1.0	1.0	1.0	750	0/3	0/3	0/3	1/3	1/3	2/3	2/3	Mortality 24 Hrs [2, 4]: 0/3
CCCCC(CC)CNc1cc[n+](CCCCCCCCCC[n+]2ccc(NCC(CC)CCCC)cc2)cc1 (stereo not drawn) [Example 59, 1,10-Bis-[4-(2-ethylhexylamino)-1-pyridinium]-decane dichloride]	0.25	0.5	1.0	1.0	1.95	7.8	31.3	1.0	15.6	1.95	1.95	1.0	750	0/3	0/3	0/3	2/3	1/3	1/3	1/3	Mortality 24 Hrs [2, 4]: 0/3
CCCCCCCNc1cc[n+](CCCCCCCC[n+]2ccc(NCCCCCCC)cc2)cc1 [Example 23]	0.5	1.95	1.0	1.95	1.95	62.6	31.3	1.0	7.8	1.0	1.95	1.95	625	0/3	0/3	0/3	1/3	1/3	3/3	3/3	Mortality 24 Hrs [2, 4]: 0/3
CCCCCCCNc1cc[n+](CCCCCCCCC[n+]2ccc(NCCCCCCC)cc2)cc1 [Example 25, 1,9-Bis-[4-(heptylamino)-1-pyridinium]nonane dichloride]	0.25	1.0	1.0	1.0	1.95	31.3	31.3	0.5	1.95	1.0	1.0	1.0	500		1/3	1/3	1/3	1/3	3/3	3/3	Autopsy, gross tissue changes ([2]; oral, 7 days, Example 25: 1000 mg./kg.): congestion of the glandular portion of the stomachs of two of the three mice was observed
CCCCCCCNc1cc[n+](CCCCCCCCCC[n+]2ccc(NCCCCCCC)cc2)cc1 [Example 27]	0.25	0.5	1.0	0.5	1.0	7.8	7.8	0.5	3.9	1.96	1.0	1.0	250	1/3	0/3	0/3	1/3	1/3	3/3	1/3	Mortality 24 Hrs [2, 4]: 0/3
CCCCCCCNc1cc[n+](CCCCCCCCCCCCCC[n+]2ccc(NCCCCCCC)cc2)cc1 [Example 1D, 1,14-bis-[4-(heptylamino)-1-pyridinium]-tetradecane dibromide]	0.77	0.77	3.0	1.54	0.77	1.54	3.0	1.95	3.0	1.54	1.54	0.77									Fold Increase in MIC S. Aureus ATCC 6538 (S. Aureus ATCC 6538; 40% vs 0% horse serum): 16 fold; MIC (S. Aureus ATCC 6538; 40% heat inactivated horse serum, read-out: MIC S. Aureus ATCC 6538 40% Serum): 3.12 µg/mL; MIC (S. Aureus ATCC 6538; read-out: MIC S. Aureus ATCC 6538 0% Serum): 0.195 µg/mL; Fold Increase in MIC E. Coli ATCC 8739 (E. Coli ATCC 8739; 40% vs 0% horse serum): 16 fold; MIC (E. Coli ATCC 8739; 40% heat inactivated horse serum, read-out: MIC E. Coli ATCC 8739 40% Serum): 25 µg/mL; MIC (E. Coli ATCC 8739; read-out: MIC E. Coli ATCC 8739 0% Serum): 1.56 µg/mL; Virucidal activity against Herpes simplex type 2 virus [3]: active; Mortality 7 Days [2, 8]: 0/3; Mortality 24 Hrs [2, 8]: 0/3; Mortality 7 Days [2, 9]: 0/3; Mortality 24 Hrs [2, 9]: 0/3; Mortality 7 Days [2, 10]: 1/3; Mortality 24 Hrs [2, 10]: 1/3; Mortality 7 Days [2, 11]: 2/3; Mortality 24 Hrs [2, 11]: 2/3; 7-Day ALD50 ([2]; oral, suspension in 1% gum tragacanth, 10080 min): 750 mg/kg
CCCCCCCNc1cc[n+](CCCCCCCCCCCCCC[n+]2ccc(NCCCCCCC)cc2)cc1 [Example 2, 1,14-bis-[4-(heptylamino)-1-pyridinium]tetradecane dichloride]			1.0		3.9	3.9			7.8	3.9	7.8										MIC (S. Aureus Smith; Staphylococcus aureus, 20 h, read-out: MIC S. Aureus Smith): 1 µg/mL; MIC (E. coli 100/B22; Escherichia coli, 100/B22, 20 h, read-out: MIC E. coli 100/B22, 18-20 hours at 37° C.): 1 µg/mL; MIC (E. coli Vogel; Escherichia coli, 20 h, read-out: MIC E. coli Vogel): 1.95 µg/mL; MIC (Ps. aerug. MGH-2; Pseudomonas aeruginosa, 20 h, read-out: MIC Ps. aerug. MGH-2): 1.95 µg/mL; MIC (S. pyogen. C203; Streptococcus pyogenes, 20 h, read-out: MIC S. pyogen. C203): 1 µg/mL; MIC (T. menta. 9129; Trichophyton mentagrophytes, 20 h, read-out: MIC T. menta. 9129): 1 µg/mL; LD50 at 168 h ([1]; suspension in 1% gum tragacanth): 1000 mg/kg; Mortality 7 Days [2, 8]: 0/3; Mortality 24 Hrs [2, 8]: 0/3; Mortality 7 Days [2, 9]: 1/3; Mortality 24 Hrs [2, 9]: 0/3; Mortality 7 Days [2, 10]: 0/3; Mortality 24 Hrs [2, 10]: 0/3; Mortality 7 Days [2, 11]: 1/3; Mortality 24 Hrs [2, 11]: 0/3
